Read-outs that look alike come from different tables or passages of the source.
How the values were obtained:
Type in all cases: biochemical
MET = MET (Homo sapiens, UniProt P08581); test: Activity against various protein tyrosine kinases: MET; settings: for inhibition at 0.01 µM: 10 nM
Experimental: (§1) Using techniques know those of ordinary skill in the art, compounds were tested for activity against various protein tyrosine kinases.

p38a = p38a (Homo sapiens, UniProt Q16539); test: Activity against various protein tyrosine kinases: p38a; settings: for inhibition at 1 µM: read-out: % Inhibition at 1 μM; for inhibition at 0.01 µM: 10 nM
Experimental: as §1

MSK1 = MSK1 (Homo sapiens, UniProt O75582); test: Activity against various protein tyrosine kinases: MSK1; settings: for inhibition at 0.01 µM: 10 nM
Experimental: as §1

AKT3 = AKT3 (Homo sapiens, UniProt Q9Y243); test: Activity against various protein tyrosine kinases: AKT3; settings: for inhibition at 0.01 µM: 10 nM
Experimental: as §1

AurA = target: T1, AurA (Homo sapiens, UniProt O14965); test: Activity against various protein tyrosine kinases: AurA; settings: for inhibition at 0.01 µM: 10 nM
T1 sequence (O14965 1-403): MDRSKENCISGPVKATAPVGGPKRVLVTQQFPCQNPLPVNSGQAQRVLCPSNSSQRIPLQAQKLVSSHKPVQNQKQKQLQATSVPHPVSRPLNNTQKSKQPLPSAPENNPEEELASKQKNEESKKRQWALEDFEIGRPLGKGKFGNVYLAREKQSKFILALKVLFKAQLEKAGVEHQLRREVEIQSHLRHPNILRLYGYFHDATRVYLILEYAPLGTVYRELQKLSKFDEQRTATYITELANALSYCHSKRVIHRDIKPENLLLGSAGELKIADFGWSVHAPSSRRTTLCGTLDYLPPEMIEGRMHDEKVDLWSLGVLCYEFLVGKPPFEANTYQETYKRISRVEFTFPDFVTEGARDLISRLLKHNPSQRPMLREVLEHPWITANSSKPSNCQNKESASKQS
Experimental: as §1

PRAK = target: T2, PRAK (Homo sapiens, UniProt Q8IW41); test: Activity against various protein tyrosine kinases: PRAK; settings: for inhibition at 0.01 µM: 10 nM
T2 sequence (Q8IW41 1-473): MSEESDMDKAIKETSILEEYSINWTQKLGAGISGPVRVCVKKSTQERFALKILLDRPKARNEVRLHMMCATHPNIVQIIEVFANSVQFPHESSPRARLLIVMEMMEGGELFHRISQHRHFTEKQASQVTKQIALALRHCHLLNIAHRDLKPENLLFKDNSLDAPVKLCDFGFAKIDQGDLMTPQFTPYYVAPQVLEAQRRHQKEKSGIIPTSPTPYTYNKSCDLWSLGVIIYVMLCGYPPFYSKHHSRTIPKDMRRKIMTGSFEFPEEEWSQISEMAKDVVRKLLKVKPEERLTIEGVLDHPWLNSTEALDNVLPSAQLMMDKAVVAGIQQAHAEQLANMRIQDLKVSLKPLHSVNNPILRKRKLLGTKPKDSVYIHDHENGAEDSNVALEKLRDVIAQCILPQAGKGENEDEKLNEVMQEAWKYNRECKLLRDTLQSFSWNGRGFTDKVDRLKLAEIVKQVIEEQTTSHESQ
Experimental: as §1

Fer = Fer (Homo sapiens, UniProt P16591); test: Activity against various protein tyrosine kinases: Fer; settings: for inhibition at 0.01 µM: 10 nM
Experimental: as §1

CHK1 = target: T3, CHK1 (Homo sapiens, UniProt O14757); test: Activity against various protein tyrosine kinases: CHK1; settings: for inhibition at 0.01 µM: 10 nM
T3 sequence (O14757 1-476): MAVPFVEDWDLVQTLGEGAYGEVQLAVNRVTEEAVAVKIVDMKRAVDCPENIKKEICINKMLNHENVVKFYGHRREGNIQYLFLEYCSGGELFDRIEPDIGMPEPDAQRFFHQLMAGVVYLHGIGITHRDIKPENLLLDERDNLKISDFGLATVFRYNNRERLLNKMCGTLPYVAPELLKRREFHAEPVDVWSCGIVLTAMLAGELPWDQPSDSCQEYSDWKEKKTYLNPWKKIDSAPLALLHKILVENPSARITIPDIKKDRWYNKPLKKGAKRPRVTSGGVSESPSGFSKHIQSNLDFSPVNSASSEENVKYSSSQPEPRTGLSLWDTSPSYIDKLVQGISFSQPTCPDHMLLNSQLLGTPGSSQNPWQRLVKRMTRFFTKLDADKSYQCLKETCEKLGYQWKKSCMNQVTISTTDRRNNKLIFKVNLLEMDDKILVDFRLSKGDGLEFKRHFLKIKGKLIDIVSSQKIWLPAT
Experimental: as §1

PDGFR_alpha = PDGFR_alpha (Homo sapiens, UniProt P16234); test: Activity against various protein tyrosine kinases: PDGFR_alpha; settings: for inhibition at 0.01 µM: 10 nM
Experimental: as §1

FGFR4 = FGFR4 (Homo sapiens, UniProt P22455); test: Activity against various protein tyrosine kinases: FGFR4; settings: for inhibition at 0.01 µM: 10 nM
Experimental: as §1

p38-beta2 = p38-beta2 (Homo sapiens, UniProt Q15759); test: Activity against various protein tyrosine kinases: p38-beta2; settings: for inhibition at 0.01 µM: 10 nM
Experimental: as §1

LCK = LCK (Homo sapiens, UniProt P06239); test: Activity against various protein tyrosine kinases: LCK; settings: for inhibition at 0.01 µM: 10 nM
Experimental: as §1

FGFR1 = FGFR1 (Homo sapiens, UniProt P11362); test: Activity against various protein tyrosine kinases: FGFR1; settings: for inhibition at 0.01 µM: 10 nM
Experimental: as §1

EPHA2 = EPHA2 (Homo sapiens, UniProt P29317); test: Activity against various protein tyrosine kinases: EPHA2; settings: for inhibition at 0.01 µM: 10 nM
Experimental: as §1

PKA = test: Activity against various protein tyrosine kinases: PKA
Experimental: as §1

FYN = FYN (Homo sapiens, UniProt P06241); test: Activity against various protein tyrosine kinases: FYN; settings: for inhibition at 0.01 µM: 10 nM
Experimental: as §1

ABL (H396P) = ABL (H396P) (Homo sapiens, UniProt P00519, H396P); test: Activity against various protein tyrosine kinases: ABL (H396P); settings: for inhibition at 0.01 µM: read-out: % Inhibition at 10 nM; for inhibition at 1 µM: read-out: % Inhibition at 1 μM
Experimental: as §1

LYN = LYN (Homo sapiens, UniProt P07948); test: Activity against various protein tyrosine kinases: LYN; settings: for inhibition at 0.01 µM: 10 nM
Experimental: as §1

Erk1 = Erk1 (Homo sapiens, UniProt P27361); test: Activity against various protein tyrosine kinases: Erk1; settings: for inhibition at 0.01 µM: 10 nM
Experimental: as §1

ABL (Q252H) = ABL (Q252H) (Homo sapiens, UniProt P00519, Q252H); test: Activity against various protein tyrosine kinases: ABL (Q252H); settings: for inhibition at 0.01 µM: read-out: % Inhibition at 10 nM; for inhibition at 1 µM: read-out: % Inhibition at 1 μM
Experimental: as §1

MSK1, sequence (O75582 whole entry, species assumed): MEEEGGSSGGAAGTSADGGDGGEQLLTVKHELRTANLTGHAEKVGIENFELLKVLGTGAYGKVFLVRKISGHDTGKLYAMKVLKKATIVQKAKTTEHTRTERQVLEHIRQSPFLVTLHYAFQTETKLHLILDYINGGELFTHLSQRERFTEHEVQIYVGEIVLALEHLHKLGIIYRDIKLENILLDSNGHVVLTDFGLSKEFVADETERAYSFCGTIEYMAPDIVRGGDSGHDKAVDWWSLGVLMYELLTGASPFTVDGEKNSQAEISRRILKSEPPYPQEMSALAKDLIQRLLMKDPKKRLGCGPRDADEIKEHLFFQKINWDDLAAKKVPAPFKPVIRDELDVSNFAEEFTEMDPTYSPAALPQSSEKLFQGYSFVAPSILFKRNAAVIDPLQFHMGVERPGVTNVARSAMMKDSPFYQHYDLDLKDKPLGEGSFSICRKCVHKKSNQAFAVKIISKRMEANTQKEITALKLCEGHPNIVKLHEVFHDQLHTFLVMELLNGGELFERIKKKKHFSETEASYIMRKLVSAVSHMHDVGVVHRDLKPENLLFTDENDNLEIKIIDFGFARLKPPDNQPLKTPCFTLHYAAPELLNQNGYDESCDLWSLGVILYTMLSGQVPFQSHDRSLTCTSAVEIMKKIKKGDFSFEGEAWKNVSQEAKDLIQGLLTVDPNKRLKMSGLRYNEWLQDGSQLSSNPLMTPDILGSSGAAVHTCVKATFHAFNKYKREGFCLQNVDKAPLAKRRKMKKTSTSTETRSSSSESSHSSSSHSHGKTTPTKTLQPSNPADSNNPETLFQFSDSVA
p38-beta2, sequence (Q15759 whole entry): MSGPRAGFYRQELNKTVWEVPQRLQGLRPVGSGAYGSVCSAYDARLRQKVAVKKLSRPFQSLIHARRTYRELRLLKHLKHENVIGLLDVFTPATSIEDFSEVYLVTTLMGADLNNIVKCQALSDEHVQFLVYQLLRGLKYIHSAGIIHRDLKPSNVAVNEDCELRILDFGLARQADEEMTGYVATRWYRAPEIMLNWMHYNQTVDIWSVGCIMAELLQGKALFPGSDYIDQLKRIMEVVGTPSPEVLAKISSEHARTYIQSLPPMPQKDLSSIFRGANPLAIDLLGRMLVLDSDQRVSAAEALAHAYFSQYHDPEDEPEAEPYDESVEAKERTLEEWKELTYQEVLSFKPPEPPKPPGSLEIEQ
FGFR1, sequence (P11362 22-822, species assumed): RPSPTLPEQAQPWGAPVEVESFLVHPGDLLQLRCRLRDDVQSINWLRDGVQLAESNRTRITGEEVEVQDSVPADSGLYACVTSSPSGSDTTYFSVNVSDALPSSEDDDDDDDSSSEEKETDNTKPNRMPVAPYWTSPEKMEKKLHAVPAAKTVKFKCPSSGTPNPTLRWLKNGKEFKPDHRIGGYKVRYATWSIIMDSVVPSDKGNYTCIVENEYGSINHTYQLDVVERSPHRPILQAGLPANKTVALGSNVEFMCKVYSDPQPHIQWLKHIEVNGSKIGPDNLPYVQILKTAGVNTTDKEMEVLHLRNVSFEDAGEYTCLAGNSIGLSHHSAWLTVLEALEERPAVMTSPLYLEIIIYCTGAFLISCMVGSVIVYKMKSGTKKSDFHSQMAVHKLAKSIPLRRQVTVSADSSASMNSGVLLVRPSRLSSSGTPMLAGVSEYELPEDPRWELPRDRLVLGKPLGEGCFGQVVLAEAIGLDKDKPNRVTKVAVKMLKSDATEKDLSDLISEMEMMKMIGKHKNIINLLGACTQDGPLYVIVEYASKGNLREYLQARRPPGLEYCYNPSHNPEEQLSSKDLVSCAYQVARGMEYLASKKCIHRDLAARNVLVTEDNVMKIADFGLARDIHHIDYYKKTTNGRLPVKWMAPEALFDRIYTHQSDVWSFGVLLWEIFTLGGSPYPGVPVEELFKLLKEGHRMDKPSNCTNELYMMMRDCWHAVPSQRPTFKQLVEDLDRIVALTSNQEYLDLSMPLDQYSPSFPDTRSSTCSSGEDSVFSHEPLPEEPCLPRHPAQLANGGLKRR
AKT3, sequence (Q9Y243 whole entry, species assumed): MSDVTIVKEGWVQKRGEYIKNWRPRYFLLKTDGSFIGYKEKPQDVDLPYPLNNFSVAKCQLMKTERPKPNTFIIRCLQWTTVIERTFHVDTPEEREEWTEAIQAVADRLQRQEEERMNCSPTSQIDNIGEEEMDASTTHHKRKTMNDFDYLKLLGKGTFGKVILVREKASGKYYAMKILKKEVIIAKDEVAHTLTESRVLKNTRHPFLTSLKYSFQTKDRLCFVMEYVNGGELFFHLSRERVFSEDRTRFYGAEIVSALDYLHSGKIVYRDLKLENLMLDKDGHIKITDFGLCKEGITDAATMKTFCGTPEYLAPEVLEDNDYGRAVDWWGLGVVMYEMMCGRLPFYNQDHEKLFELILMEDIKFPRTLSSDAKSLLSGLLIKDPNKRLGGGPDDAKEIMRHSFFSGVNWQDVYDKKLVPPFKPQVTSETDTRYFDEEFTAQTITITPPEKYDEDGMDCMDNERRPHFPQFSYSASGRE
p38a, sequence (Q16539 whole entry): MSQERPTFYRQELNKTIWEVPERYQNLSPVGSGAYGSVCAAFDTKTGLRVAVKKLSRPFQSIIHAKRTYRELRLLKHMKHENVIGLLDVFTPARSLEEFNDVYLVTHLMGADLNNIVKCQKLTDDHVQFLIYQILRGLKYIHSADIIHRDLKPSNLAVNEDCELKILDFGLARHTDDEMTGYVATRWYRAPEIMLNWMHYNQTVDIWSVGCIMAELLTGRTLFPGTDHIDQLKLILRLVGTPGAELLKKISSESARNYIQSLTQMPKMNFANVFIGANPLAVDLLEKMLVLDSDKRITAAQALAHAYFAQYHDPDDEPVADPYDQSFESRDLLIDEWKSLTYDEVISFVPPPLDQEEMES
MET, sequence (P08581 25-1390): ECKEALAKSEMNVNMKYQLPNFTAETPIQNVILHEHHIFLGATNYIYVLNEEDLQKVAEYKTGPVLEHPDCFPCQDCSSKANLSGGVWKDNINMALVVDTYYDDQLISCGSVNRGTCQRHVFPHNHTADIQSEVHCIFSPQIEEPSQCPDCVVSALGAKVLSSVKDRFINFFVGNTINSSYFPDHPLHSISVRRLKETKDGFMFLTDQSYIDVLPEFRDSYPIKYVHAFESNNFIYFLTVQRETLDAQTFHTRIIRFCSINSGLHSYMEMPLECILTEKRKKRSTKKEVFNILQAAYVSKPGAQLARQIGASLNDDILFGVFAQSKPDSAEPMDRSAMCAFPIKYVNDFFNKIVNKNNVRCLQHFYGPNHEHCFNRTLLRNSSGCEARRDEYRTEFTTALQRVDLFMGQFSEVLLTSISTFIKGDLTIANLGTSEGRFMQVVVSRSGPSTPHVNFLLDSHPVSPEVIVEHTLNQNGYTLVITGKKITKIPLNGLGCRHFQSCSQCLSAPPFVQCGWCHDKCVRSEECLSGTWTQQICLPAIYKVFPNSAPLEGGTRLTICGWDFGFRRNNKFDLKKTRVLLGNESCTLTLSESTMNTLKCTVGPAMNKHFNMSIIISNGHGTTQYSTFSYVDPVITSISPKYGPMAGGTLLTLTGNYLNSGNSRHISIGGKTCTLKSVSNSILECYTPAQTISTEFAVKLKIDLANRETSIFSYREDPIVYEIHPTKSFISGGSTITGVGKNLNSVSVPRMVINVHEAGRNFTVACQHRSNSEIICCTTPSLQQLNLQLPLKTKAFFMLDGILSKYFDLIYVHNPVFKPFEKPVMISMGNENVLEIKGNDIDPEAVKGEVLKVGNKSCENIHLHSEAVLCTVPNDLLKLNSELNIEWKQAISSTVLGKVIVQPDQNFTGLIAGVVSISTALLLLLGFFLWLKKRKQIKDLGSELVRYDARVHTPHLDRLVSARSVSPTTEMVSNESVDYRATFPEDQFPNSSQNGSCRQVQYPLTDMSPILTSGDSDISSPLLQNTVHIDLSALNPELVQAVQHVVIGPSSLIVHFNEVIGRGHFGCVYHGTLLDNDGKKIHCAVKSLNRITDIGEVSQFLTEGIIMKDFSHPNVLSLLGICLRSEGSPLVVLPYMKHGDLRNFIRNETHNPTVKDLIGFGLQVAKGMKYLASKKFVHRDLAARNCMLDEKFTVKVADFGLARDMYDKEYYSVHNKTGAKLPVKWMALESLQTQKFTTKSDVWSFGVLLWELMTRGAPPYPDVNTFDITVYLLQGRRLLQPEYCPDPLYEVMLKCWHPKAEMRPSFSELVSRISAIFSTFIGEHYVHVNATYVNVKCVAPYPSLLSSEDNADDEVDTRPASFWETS
FGFR4, sequence (P22455 22-802, species assumed): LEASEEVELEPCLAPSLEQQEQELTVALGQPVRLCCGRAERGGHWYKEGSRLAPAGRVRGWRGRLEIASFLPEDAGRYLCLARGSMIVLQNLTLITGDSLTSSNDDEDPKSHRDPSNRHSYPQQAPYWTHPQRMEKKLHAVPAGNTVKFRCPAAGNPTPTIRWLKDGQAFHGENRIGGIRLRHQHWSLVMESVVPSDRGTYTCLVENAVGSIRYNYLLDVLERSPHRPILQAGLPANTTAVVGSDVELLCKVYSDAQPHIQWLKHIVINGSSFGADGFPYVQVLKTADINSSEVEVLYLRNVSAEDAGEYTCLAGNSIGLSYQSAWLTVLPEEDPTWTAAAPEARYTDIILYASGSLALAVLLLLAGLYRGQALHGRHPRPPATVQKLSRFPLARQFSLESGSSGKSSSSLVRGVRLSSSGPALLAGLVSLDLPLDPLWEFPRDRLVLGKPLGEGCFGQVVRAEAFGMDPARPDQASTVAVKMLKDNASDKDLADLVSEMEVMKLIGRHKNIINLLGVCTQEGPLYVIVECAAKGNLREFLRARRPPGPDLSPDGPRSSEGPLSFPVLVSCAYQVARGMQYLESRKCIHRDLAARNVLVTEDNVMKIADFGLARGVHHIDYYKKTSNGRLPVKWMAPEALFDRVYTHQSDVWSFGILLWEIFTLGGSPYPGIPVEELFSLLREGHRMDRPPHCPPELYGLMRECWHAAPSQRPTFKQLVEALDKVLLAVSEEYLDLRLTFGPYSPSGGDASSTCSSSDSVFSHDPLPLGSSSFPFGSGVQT

Structure (SMILES) | inhibition at 0.01 µM (MET) [%] | inhibition at 1 µM (MSK1) [%] | inhibition at 0.01 µM (AKT3) [%] | inhibition at 1 µM (AKT3) [%] | inhibition at 0.01 µM (AurA) [%] | inhibition at 0.01 µM (PRAK) [%] | inhibition at 0.01 µM (Fer) [%] | inhibition at 0.01 µM (CHK1) [%] | inhibition at 0.01 µM (PDGFR_alpha) [%] | inhibition at 0.01 µM (FGFR4) [%] | inhibition at 0.01 µM (p38-beta2) [%] | inhibition at 1 µM (p38-beta2) [%] | inhibition at 1 µM (MET) [%] | inhibition at 0.01 µM (LCK) [%] | inhibition at 1 µM (LCK) [%] | inhibition at 0.01 µM (p38a; p38a) [%] | inhibition at 1 µM (p38a; p38a, 1 μM) [%] | inhibition at 0.01 µM (MSK1) [%] | inhibition at 0.01 µM (FGFR1) [%] | inhibition at 1 µM (FGFR1) [%] | other results
Cc1nc(Nc2ncc(C(=O)Nc3c(C)cccc3Cl)s2)cc(N2CCN(CCO)CC2)n1 [Dasatinib, reference compound] | -2 | 3 | -3 | -4 | -2 | -2 | -3 | 3 | 10 | -2 | -2 | 34 |  |  |  |  |  |  |  |  | inhibition at 1 µM (p38a): 75%
COCCOCCOCCNC(=O)OCCN1CCN(c2cc(Nc3ncc(C(=O)Nc4c(C)cccc4Cl)s3)nc(C)n2)CC1 [mPEG3-NHCOO-Dasatinib] | 3 | 1 | 0 | -1 | -7 | 6 | -4 | -2 | 58 | 3 | 3 | 48 | 0 | 97 | 98 | 6 | 81 | 2 | 11 | -3 | inhibition at 0.01 µM (EPHA2): 40%; inhibition at 1 µM (EPHA2): 100%; % Inhibition at 10 nM (PKA): 3%; % Inhibition at 1 μM (PKA): 0%; inhibition at 1 µM (AurA): 19%; inhibition at 1 µM (PRAK): 4%; inhibition at 1 µM (Fer): 5%; inhibition at 1 µM (CHK1): 0%; inhibition at 0.01 µM (FYN): 98%; inhibition at 1 µM (FYN): 99%; inhibition at 0.01 µM (ABL (H396P)): 99%; inhibition at 1 µM (ABL (H396P)): 99%; inhibition at 1 µM (PDGFR_alpha): 99%; inhibition at 1 µM (FGFR4): 6%; inhibition at 0.01 µM (LYN): 99%; inhibition at 1 µM (LYN): 99%; inhibition at 0.01 µM (Erk1): 3%; inhibition at 1 µM (Erk1): 2%; inhibition at 0.01 µM (ABL (Q252H)): 98%; inhibition at 1 µM (ABL (Q252H)): 99%
COCCOCCOCCOCCOCCOCCOCCNC(=O)OCCN1CCN(c2cc(Nc3ncc(C(=O)Nc4c(C)cccc4Cl)s3)nc(C)n2)CC1 [mPEG7-NHCOO-Dasatinib] | 1 | 5 | -3 | -2 | 3 | 8 | -2 | 10 | 46 | 0 | 0 | 35 | 1 | 98 | 98 | 5 | 74 | 3 | 2 | 3 | inhibition at 0.01 µM (EPHA2): 36%; inhibition at 1 µM (EPHA2): 101%; % Inhibition at 10 nM (PKA): 0%; % Inhibition at 1 μM (PKA): 2%; inhibition at 1 µM (AurA): 28%; inhibition at 1 µM (PRAK): 0%; inhibition at 1 µM (Fer): 5%; inhibition at 1 µM (CHK1): 8%; inhibition at 0.01 µM (FYN): 98%; inhibition at 1 µM (FYN): 98%; inhibition at 0.01 µM (ABL (H396P); ABL (H396P), 10 nM): 99%; inhibition at 1 µM (ABL (H396P); ABL (H396P), 1 μM): 99%; inhibition at 1 µM (PDGFR_alpha): 98%; inhibition at 1 µM (FGFR4): 2%; inhibition at 0.01 µM (LYN): 98%; inhibition at 1 µM (LYN): 98%; inhibition at 0.01 µM (Erk1): 3%; inhibition at 1 µM (Erk1): 4%; inhibition at 0.01 µM (ABL (Q252H); ABL (Q252H), 10 nM): 99%; inhibition at 1 µM (ABL (Q252H); ABL (Q252H), 1 μM): 99%

— patent US20120094998A1, “Oligomer-Protein Tyrosine Kinase Inhibitor Conjugates” (Nektar Therapeutics, priority 2009, published 2012)
